Assay results: patent US9834525B2, “Inhibitors of paxillin function and related compositions and methods” (UNIVERSITY OF TENNESSEE RESEARCH FOUNDATION, priority 2015, dated 2017)
Entries after “also recorded” stand apart in the source; their conditions may differ.

What was measured:
[1] = test system: retinal endothelial cells (REC); test: transwell (Boyden chamber) cell migration assay, VEGF-stimulated RECs; assay type: cell-based, human; conditions: 24 hours of VEGF stimulation; +100, +500 nM
Procedure: Two methods of evaluating VEGF-induced REC migration were used to assess the impact of compound (II-4) on paxillin-mediated migration: the scratch assay and the transwell (Boyden chamber) cell migration assay. To test if paxillin inhibition would reduce VEGF-induced REC migration, RECs were wounded and treated with VEGF ([…]) +/− compound (II-4) ([…]). Wound closure was monitored by phase microscopy over 24 hours and area of wound closure was calculated using the sophisticated image analysis tools in Adobe Photoshop. Cells were then fixed and nuclei were stained using DAPI to show extent of cell migration.
Compound (II-4) was further investigated around these concentrations using the transwell migration assay (FIG. 17B).
FIG. 17: REC migration. A) Increasing concentrations of compound (II-4) inhibit VEGF-induced migration in a scratch wound assay; [Serum Free-control, VEGF (100 ng/mL), VEGF+100 nM, 500 nM, 10 μM, 100 μM] (IC50≈180 ηM; n=6/group). Cells were stained with DAPI for representative images. B) RECs seeded onto transwell membranes were stimulated with VEGF+ vehicle or compound (II-4) for 24 hrs. Cells were removed from the topside of membrane and migrated cells were stained with DAPI [Serum-Free (SF), VEGF, +100, +500 nM, respectively]. Cell number was measured using fluorescence microscopy. All data are mean±SD (*, # P<0.001)

VLA-4 = VLA-4 protein levels by flow cytometry in UM cells; assay type: cell-based, human; conditions: UM cells after treatment
Procedure: Harvested cells were washed and counted. 1.0×10^6 cells were labeled with the following cell surface antibodies: FITC anti-CD54 (ICAM-1, clone HA58, BioLegend), PE anti-CD102 (ICAM-2, clone CBR-IC2/2, BioLegend), PE-Cy7 anti-CD49d (VLA-4, clone 9F10, BioLegend), APC anti-CD106 (VCAM-1, clone STA, BioLegend), PerCP-Cy5.5 anti-CD166 (ALCAM, clone 3A6, BioLegend), Biotin anti-CD326 (EpCAM, clone 1B7, BD Biosciences) using manufacturer's conditions. Cells were incubated in antibody cocktail for 30 minutes on ice followed by two washes with PBS/2% FBS. Second-labeling step was performed using Brilliant Violet 421 Streptavidin (bv421-SA, BioLegend) for 30 minutes on ice followed by two washes as before. […]
Next, it was investigated if reduced numbers were a consequence of a reduction in UM cells proliferation. Cell cultures in the presence or absence of compound (II-4) were analyzed by follow cytometry for cytoskeletal fragmentation and proliferation. […]
FIG. 15: The paxillin inhibitor Compound (II-4) selectively affects cellular proliferation of primary UM cells that become metastatic. […] Unlabeled cells were used to control fluorescence. […] B. Quantitation of experiment +/−SD including primary UM that becomes metastatic (Mel 270), metastatic (OMM 2.1) and primary (92.1) UM cells. *P=0.0007 and **P=0.0005. […] Quantitation of VLA-4 protein levels +/−SD from n=3. […]

[2] = Microsomal stability, pooled human liver microsomes; assay type: in vitro ADME
Procedure: (§1) Microsomal stability of compound (II-4) (1 μM) was assessed in pooled liver microsomes (human, mouse, and rat) (FIG. 7). Briefly, compound (II-4) was incubated in duplicate with microsomes at 37° C. Reactions contained microsomal protein in 100 mM potassium phosphate, 2 mM NADPH, 3 mM MgCl2, pH 7.4. NADPH was omitted to detect NADPH-free degradation. At 60 minutes, the reaction was stopped by adding ice-cold methanol containing internal standard. Samples were centrifuged to remove precipitated protein, and the supernatants were analyzed by LC/MS/MS to quantitate the remaining parent.
as §1, with “23).” for “7).”, “min,” for “minutes,”, “(+” for “containing”, “standard).” for “standard.”

CYP2D6 = target: T1, CYP2D6 (Homo sapiens, UniProt P10635); test: CYP-450 interaction study in pooled human liver microsomes, CYP2D6; assay type: in vitro ADME; conditions: 1 μM
T1 construct: from tissue; host or cells: pooled human liver microsomes
T1 sequence (P10635 whole entry): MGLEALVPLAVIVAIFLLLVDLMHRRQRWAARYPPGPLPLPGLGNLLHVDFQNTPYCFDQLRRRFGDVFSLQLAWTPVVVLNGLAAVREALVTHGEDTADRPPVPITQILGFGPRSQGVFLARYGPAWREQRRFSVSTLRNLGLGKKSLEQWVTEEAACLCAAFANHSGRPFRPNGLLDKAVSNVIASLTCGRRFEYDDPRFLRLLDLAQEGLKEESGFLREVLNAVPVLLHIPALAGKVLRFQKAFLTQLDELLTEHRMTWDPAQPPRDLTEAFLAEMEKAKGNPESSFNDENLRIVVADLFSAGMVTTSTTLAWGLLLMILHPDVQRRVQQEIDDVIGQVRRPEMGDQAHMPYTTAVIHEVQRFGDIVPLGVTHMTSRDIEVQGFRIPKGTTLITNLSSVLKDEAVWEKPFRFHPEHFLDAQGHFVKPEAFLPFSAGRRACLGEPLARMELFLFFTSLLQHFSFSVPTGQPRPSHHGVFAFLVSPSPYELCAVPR
Procedure: CYP-450 interaction studies were conducted in pooled human liver microsomes (FIG. 8). CYP-450 inhibition (%) by compound (II-4) (1 μM) was compared to control inhibitors (1 μM) for the most common CYP-450 isoforms, CYP3A4, CYP2C9, CYP2D6, CYP2C19, and CYP1A2.
CYP-450 interaction studies were conducted in pooled human liver microsomes (FIG. 24). CYP-450 inhibition (%) by compound (II-4) (1 μM) was compared to control inhibitors (1 μM) for the most common CYP-450 isoforms, 3A4, 2C9, 2D6, 2C19, and 1A2.

susceptibility to P-450 interaction in human microsomes compared to rodent ([2]; human vs rodent microsomes): less susceptible
microsomal stability (metabolism by cytochrome P-450 enzymes) ([2]; human, 1 μM, 37° C., 60 min): rapidly metabolized
Structure (SMILES): COc1cc(C2OC(=O)Nc3c2ccc2ccccc32)cc(OC)c1OC (centres unmarked) [compound II-4]
migration of RECs in transwell migration assay [1]: significant decrease
VLA-4 protein levels (VLA-4): does not affect VLA-4 protein
CYP-450 inhibition, CYP2D6 (CYP2D6): lack of significant inhibition; also recorded: lacks significant inhibition
